Assay results from patent US9695155B2, “Herbicidal substituted pyrimidinyloxy benzene compounds” (E. I. DU PONT DE NEMOURS AND COMPANY, priority 2013, dated 2017).

What was measured:
kochia = assay: Test C postemergence; assay type: in vivo, Kochia scoparia; settings: for Kochia plant response rating / Plant response rating, Kochia: scale 0 to 100 (0 no effect, 100 complete control)
How it was run: (§1)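 Plants were kept under greenhouse conditions for 13–15 days following spray. Pre-emergent application went to soil (loam–sand), post-emergent to foliage at 1–4 leaves. Evaluation: visual, percent control against untreated checks.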

pigweed = assay: Test C postemergence; assay type: in vivo, Amaranthus retroflexus; settings: for Pigweed plant response rating / Plant response rating, Pigweed: scale 0 to 100 (0 no effect, 100 complete control)
How it was run: as §1

velvetleaf = assay: Test C postemergence; assay type: in vivo, Abutilon theophrasti; settings: for Velvetleaf plant response rating / Plant response rating, Velvetleaf: scale 0 to 100 (0 no effect, 100 complete control)
How it was run: as §1

large (Lg) crabgrass = assay: Test A postemergence; assay type: in vivo, Digitaria sanguinalis
How it was run: (§2)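 Greenhouse pot test, loam/sand soil. Formulation: non-phytotoxic solvent mix plus surfactant. Pre: directed spray onto soil after sowing. Post: plants at 1–2 leaf, 2–10 cm. Rated visually vs untreated controls at ~10 d, 0 (no effect) to 100 (complete control).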

chickweed = assay: Test C postemergence; assay type: in vivo, Stellaria media; settings: for Chickweed plant response rating / Plant response rating, Chickweed: scale 0 to 100 (0 no effect, 100 complete control)
How it was run: as §1

corn = assay: Test A postemergence; assay type: in vivo, Zea mays
How it was run: as §2

morningglory = assay: Test A postemergence; assay type: in vivo, Ipomoea spp.
How it was run: as §2

giant foxtail = assay: Test A postemergence; assay type: in vivo, Setaria faberii
How it was run: as §2

Italian ryegrass = assay: Test C postemergence; assay type: in vivo, Lolium multiflorum; settings: for Ryegrass, Italian plant response rating / Plant response rating, Ryegrass, Italian: scale 0 to 100 (0 no effect, 100 complete control)
How it was run: as §1

[1] = 16 g ai/ha, postemergence, 0 is no effect, 100 is complete control
[2] = 31 g ai/ha, postemergence, visual rating, 13 to 15 days
[3] = 125 g ai/ha, postemergence, visual rating
[4] = 125 g ai/ha, 0 to 100 scale where 0 is no effect and 100 is complete control
[5] = 500 g ai/ha, 0 to 100 scale where 0 is no effect and 100 is complete control
[6] = Postemergence, 31 g ai/ha, 13 to 15 days
[7] = 500 g ai/ha, 0 to 100 scale, 0 no effect, 100 complete control
[8] = Postemergence, 62 g ai/ha, 13 to 15 days
[9] = 1000 g ai/ha, 0 to 100 scale, 0 no effect, 100 complete control

## Fc1cccc(Oc2ncc(Cl)cn2)c1-n1cc(Cl)cn1 [Compound 177]
kochia; [1]
  Plant response rating (0 to 100), Kochia: 70
kochia; [2]
  Kochia plant response rating: 70
kochia; [3]
  Plant response rating, Kochia: 95
kochia; Postemergence, 62 g ai/ha
  Plant response rating, Kochia: 90
pigweed; [1]
  Plant response rating (0 to 100), Pigweed: 75
pigweed; [2]
  Pigweed plant response rating: 80
pigweed; [3]
  Plant response rating, Pigweed: 95
pigweed; Postemergence, 62 g ai/ha
  Plant response rating, Pigweed: 85
velvetleaf; [1]
  Plant response rating (0 to 100), Velvetleaf: 50
velvetleaf; [2]
  Velvetleaf plant response rating: 70
velvetleaf; [3]
  Plant response rating, Velvetleaf: 80
velvetleaf; Postemergence, 62 g ai/ha
  Plant response rating, Velvetleaf: 70
Large (Lg) crabgrass; [4]
  Crabgrass, Large plant response rating: 80
Large (Lg) crabgrass; [5]
  Plant response rating, Crabgrass, Large: 100
chickweed; [1]
  Plant response rating (0 to 100), Chickweed: 50
chickweed; [2]
  Chickweed plant response rating: 50
chickweed; [3]
  Plant response rating, Chickweed: 85
chickweed; Postemergence, 62 g ai/ha
  Plant response rating, Chickweed: 55
corn; [4]
  Corn plant response rating: 40
corn; [5]
  Plant response rating, Corn: 70
morningglory; [4]
  Morningglory plant response rating: 90
morningglory; [5]
  Plant response rating, Morningglory: 100
Giant foxtail; [4]
  Foxtail, Giant plant response rating: 80
Giant foxtail; [5]
  Plant response rating, Foxtail, Giant: 100
Italian ryegrass; [1]
  Plant response rating (0 to 100), Ryegrass, Italian: 0
Italian ryegrass; [2]
  Ryegrass, Italian plant response rating: 0
Italian ryegrass; [3]
  Plant response rating, Ryegrass, Italian: 0
Italian ryegrass; Postemergence, 62 g ai/ha
  Plant response rating, Ryegrass, Italian: 0

## N#Cc1cccc(Oc2ncc(Br)cn2)c1-n1cc(Br)cn1 [Compound 57]
kochia; 125 g ai/ha, postemergence
  Plant response rating (0 to 100), Kochia: 90
kochia; 250 g ai/ha, postemergence
  Plant response rating (0 to 100), Kochia: 100
kochia; [6]
  Plant response rating, Kochia: 85
kochia; Postemergence, 62 g ai/ha
  Plant response rating, Kochia: 90
pigweed; 250 g ai/ha, postemergence
  Plant response rating (0 to 100), Pigweed: 95
pigweed; [6]
  Plant response rating, Pigweed: 65
pigweed; Postemergence, 62 g ai/ha
  Plant response rating, Pigweed: 85
velvetleaf; 125 g ai/ha, postemergence
  Plant response rating (0 to 100), Velvetleaf: 40
velvetleaf; 250 g ai/ha, postemergence
  Plant response rating (0 to 100), Velvetleaf: 60
velvetleaf; [6]
  Plant response rating, Velvetleaf: 25
velvetleaf; Postemergence, 62 g ai/ha
  Plant response rating, Velvetleaf: 35
Large (Lg) crabgrass; [4]
  Plant response rating, Crabgrass, Large: 90
Large (Lg) crabgrass; [7]
  Plant response rating, Crabgrass, Large: 100
chickweed; 125 g ai/ha, postemergence
  Plant response rating (0 to 100), Chickweed: 80
chickweed; 250 g ai/ha, postemergence
  Plant response rating (0 to 100), Chickweed: 80
chickweed; [6]
  Plant response rating, Chickweed: 50
chickweed; Postemergence, 62 g ai/ha
  Plant response rating, Chickweed: 50
corn; [4]
  Plant response rating, Corn: 30
corn; [7]
  Plant response rating, Corn: 90
morningglory; [4]
  Plant response rating, Morningglory: 90
morningglory; [7]
  Plant response rating, Morningglory: 80
Giant foxtail; [4]
  Plant response rating, Foxtail, Giant: 80
Giant foxtail; [7]
  Plant response rating, Foxtail, Giant: 100
Italian ryegrass; 125 g ai/ha, postemergence
  Plant response rating (0 to 100), Ryegrass, Italian: 10
Italian ryegrass; 250 g ai/ha, postemergence
  Plant response rating (0 to 100), Ryegrass, Italian: 15
Italian ryegrass; [6]
  Plant response rating, Ryegrass, Italian: 0
Italian ryegrass; Postemergence, 62 g ai/ha
  Plant response rating, Ryegrass, Italian: 5

## Clc1cnc(Oc2cccc(Cl)c2-n2cc(I)cn2)nc1 [Compound 181]
kochia; [1]
  Plant response rating (0 to 100), Kochia: 70
kochia; [2]
  Kochia plant response rating: 100
kochia; [3]
  Plant response rating, Kochia: 100
kochia; Postemergence, 62 g ai/ha
  Plant response rating, Kochia: 100
pigweed; [1]
  Plant response rating (0 to 100), Pigweed: 85
pigweed; [2]
  Pigweed plant response rating: 98
pigweed; [3]
  Plant response rating, Pigweed: 98
pigweed; Postemergence, 62 g ai/ha
  Plant response rating, Pigweed: 85
velvetleaf; [1]
  Plant response rating (0 to 100), Velvetleaf: 25
velvetleaf; [2]
  Velvetleaf plant response rating: 20
velvetleaf; [3]
  Plant response rating, Velvetleaf: 70
velvetleaf; Postemergence, 62 g ai/ha
  Plant response rating, Velvetleaf: 40
Large (Lg) crabgrass; [4]
  Crabgrass, Large plant response rating: 70
Large (Lg) crabgrass; [5]
  Plant response rating, Crabgrass, Large: 90
chickweed; [1]
  Plant response rating (0 to 100), Chickweed: 55
chickweed; [2]
  Chickweed plant response rating: 75
chickweed; [3]
  Plant response rating, Chickweed: 85
chickweed; Postemergence, 62 g ai/ha
  Plant response rating, Chickweed: 80
corn; [4]
  Corn plant response rating: 40
corn; [5]
  Plant response rating, Corn: 40
morningglory; [4]
  Morningglory plant response rating: 90
morningglory; [5]
  Plant response rating, Morningglory: 100
Giant foxtail; [4]
  Foxtail, Giant plant response rating: 70
Giant foxtail; [5]
  Plant response rating, Foxtail, Giant: 90
Italian ryegrass; [1]
  Plant response rating (0 to 100), Ryegrass, Italian: 0
Italian ryegrass; [2]
  Ryegrass, Italian plant response rating: 0
Italian ryegrass; [3]
  Plant response rating, Ryegrass, Italian: 10
Italian ryegrass; Postemergence, 62 g ai/ha
  Plant response rating, Ryegrass, Italian: 5

## Clc1cnc(Oc2ccccc2-n2cc(Br)nn2)nc1 [Compound 223]
kochia; [1]
  Plant response rating (0 to 100), Kochia: 70
kochia; [2]
  Kochia plant response rating: 85
kochia; [3]
  Plant response rating, Kochia: 90
kochia; [8]
  Plant response rating, Kochia: 80
pigweed; [1]
  Plant response rating (0 to 100), Pigweed: 70
pigweed; [2]
  Pigweed plant response rating: 70
pigweed; [3]
  Plant response rating, Pigweed: 90
pigweed; [8]
  Plant response rating, Pigweed: 80
velvetleaf; [1]
  Plant response rating (0 to 100), Velvetleaf: 30
velvetleaf; [2]
  Velvetleaf plant response rating: 55
velvetleaf; [3]
  Plant response rating, Velvetleaf: 90
velvetleaf; [8]
  Plant response rating, Velvetleaf: 80
Large (Lg) crabgrass; [9]
  Plant response rating, Crabgrass, Large: 100
chickweed; [1]
  Plant response rating (0 to 100), Chickweed: 35
chickweed; [2]
  Chickweed plant response rating: 50
chickweed; [3]
  Plant response rating, Chickweed: 60
chickweed; [8]
  Plant response rating, Chickweed: 50
corn; [9]
  Plant response rating, Corn: 60
morningglory; [9]
  Plant response rating, Morningglory: 100
Giant foxtail; [9]
  Plant response rating, Foxtail, Giant: 90
Italian ryegrass; [1]
  Plant response rating (0 to 100), Ryegrass, Italian: 0
Italian ryegrass; [2]
  Ryegrass, Italian plant response rating: 0
Italian ryegrass; [3]
  Plant response rating, Ryegrass, Italian: 5
Italian ryegrass; [8]
  Plant response rating, Ryegrass, Italian: 0
